Data on six compounds can be found in DBAASP.

Molecules are shown by their SMILES. ≈ marks a conversion by molar mass, not a printed value. Where “and” joins values, the source holds several entries; their conditions need not be identical. Equal values may be shown once.

What is called MIC is the lowest concentration found to suppress growth.

Test systems include Serratia sp. ATCC 39006; Escherichia coli D21; Escherichia coli W160-37.
Common to all, as to test: ≥ marks a high value that may be exact or a test limit, other limits are often not marked, values filed in µg/mL are converted to µM
For assay [1], the system named is Salmonella enterica subsp. enterica serovar Typhimurium ATCC 14028.
Assay [2] concerns Escherichia coli ATCC 25922.
The test system of assay [3] is Staphylococcus epidermidis ATCC 12228.
Assay [4] concerns Shigella sonnei ATCC 25931.
For assay [5], the system named is Proteus vulgaris ATCC 49132.
The subject of assay [6] is Klebsiella pneumoniae ATCC 700603.
For assay [7], the system named is Staphylococcus saprophyticus ATCC 15305.
In assay [8] the test system is Enterococcus faecalis ATCC 29212.
In assay [9] the test system is Neisseria gonorrhoeae ATCC 49226.
Assay [10] has as its system Staphylococcus aureus ATCC 43330.
Assay [11] deals with Streptococcus agalactiae ATCC 12386.
Assay [12] has as its system Staphylococcus aureus ATCC 25923.
The test system of assay [13] is Micrococcus luteus ATCC 49732.
Assay [14] has as its system Streptococcus pneumoniae DSM 11865.
In assay [15] the test system is Pseudomonas aeruginosa DSM 1128.
Assay [16] concerns Klebsiella pneumoniae DSM 681.
Assay [17] relates to Escherichia coli DSM 1103.
Assay [18] concerns Pectobacterium carotovorum subsp. carotovorum DSM 30168.
The subject of assay [19] is Pseudomonas syringae pv. syringae DSM 10604.
Assay [20] relates to Pseudomonas syringae pv. tomato DC3000.
Assay [21] relates to Xanthomonas vesicatoria DSM 50861.
Assay [22] has as its system Staphylococcus aureus 90857.
The test system of assay [23] is Clavibacter michiganensis subsp. michiganensis DSM 46294.
Assay [24] has as its system Pseudomonas corrugata DSM 7228.
In assay [25] the test system is Enterobacter cloacae ATCC 49141.
Assay [26] relates to Candida albicans ATCC 10231.
Assay [27] concerns Staphylococcus aureus II ATCC 6538P.
In assay [28] the test system is Acinetobacter baumannii ATCC 19606.
Assay [29] has as its system Pseudomonas aeruginosa ATCC 27853.
Assay [30] concerns Saccharomyces cerevisiae ATCC 8530.
The subject of assay [31] is Pseudomonas putida NCIM 2102.
For assay [32], the system named is Staphylococcus aureus ATCC 8530.
In assay [33] the test system is Cryptococcus neoformans ATCC 34881.
For assay [34], the system named is Staphylococcus aureus ATCC 15752.
In assay [35] the test system is Bacillus subtilis KCTC 3038.
Assay [36] deals with Escherichia coli ATCC 27325.
Assay [37] concerns Micrococcus luteus ATCC 10240.
Assay [38] deals with Saccharomyces cerevisiae ATCC 44774.
The subject of assay [39] is Salmonella typhimurium KCTC 2370.

As for `CC[C@H](C)[C@H](NC(=O)CNC(=O)[C@H](C)NC(=O)[C@H](C)NC(=O)[C@@H](NC(=O)[C@@H](NC(=O)[C@H](CC(N)=O)NC(=O)[C@@H](NC(=O)[C@H](C)NC(=O)[C@@H](NC(=O)[C@@H]1CCCN1C(=O)[C@@H](NC(=O)[C@H](CC(C)C)NC(=O)[C@@H]1CCCN1C(=O)[C@H](Cc1c[nH]c2ccccc12)NC(=O)[C@H](Cc1ccccc1)NC(=O)[C@H](CCCN=C(N)N)NC(=O)[C@H](CCCCN)NC(=O)[C@@H](NC(=O)[C@@H](N)CCCN=C(N)N)C(C)C)C(C)C)C(C)C)[C@@H](C)CC)[C@@H](C)O)C(C)C)C(=O)N[C@@H](CC(N)=O)C(=O)N[C@@H](CC(C)C)C(=O)N[C@@H](Cc1ccc(O)cc1)C(=O)N[C@@H](CCCCN)C(=O)N[C@@H](C)C(=O)N[C@H](C(=O)N[C@@H](CCCN=C(N)N)C(=O)N[C@@H](CCCN=C(N)N)C(=O)N[C@@H](CCCCN)C(N)=O)[C@@H](C)CC` [RVKRFWPLVPVAINTVAAGINLYKAIRRK], the MIC in assay [1] was determined as 2.15 µM (≈ 7.21 µg/mL); in assay [2], 0.934 µM (≈ 3.13 µg/mL); in assay [3], 2.49 µM (≈ 8.33 µg/mL); in assay [4], 0.537 µM (≈ 1.8 µg/mL); in [5], 2.49 µM (≈ 8.33 µg/mL); in assay [6], 2.15 µM (≈ 7.21 µg/mL). Also, the MIC in assay [7] stood at 1.22 µM (≈ 4.1 µg/mL); in assay [8], 0.934 µM (≈ 3.13 µg/mL); in assay [9], 2.49 µM (≈ 8.33 µg/mL); in assay [10], 3.73 µM (≈ 12.5 µg/mL); in [11], 1.4 µM (≈ 4.7 µg/mL); in [12], 1.22 µM (≈ 4.1 µg/mL). Besides, the MIC (in assay [13]; against Serratia sp. ATCC 39006) was 0.63 µM (≈ 2.11 µg/mL) throughout.
Turning to `CC(C)C[C@H](NC(=O)[C@@H](NC(=O)[C@H](C)NC(=O)[C@H](C)NC(=O)[C@H](CCCN=C(N)N)NC(=O)CNC(=O)CNC(=O)[C@H](CCCN=C(N)N)NC(=O)[C@@H](NC(=O)[C@H](CCCN=C(N)N)NC(=O)[C@H](C)NC(=O)[C@H](Cc1ccc(O)cc1)NC(=O)[C@H](Cc1ccc(O)cc1)NC(=O)[C@H](CCCCN)NC(=O)[C@H](CCC(N)=O)NC(=O)[C@@H](N)CC(C)C)C(C)C)C(C)C)C(=O)N[C@@H](CO)C(=O)O` [LQKYYARVRGGRAAVLS], the MIC was at least 157 µM in assay [14]; above 157 µM in [12]; at least 157 µM in [15]; at least 157 µM in [16]; at least 157 µM in assay [17].
On to `CC(C)C[C@H](NC(=O)[C@H](CC(C)C)NC(=O)[C@H](CCCN=C(N)N)NC(=O)[C@H](CCCCN)NC(=O)[C@H](CC(C)C)NC(=O)[C@H](CC(C)C)NC(=O)[C@H](CCCCN)NC(=O)[C@H](CC(C)C)NC(=O)[C@H](CCCN=C(N)N)NC(=O)[C@H](CCCCN)NC(=O)[C@H](CCCCN)NC(=O)[C@@H](N)CCCN=C(N)N)C(N)=O` [RKKRLKLLKRLL], for which the MIC in assay [18] amounted to 6.39 µM (≈ 9.99 µg/mL); in assay [19], 0.0639 µM (≈ 0.0999 µg/mL); in [20] it was 6.39 µM (≈ 9.99 µg/mL); in [21] it was 0.0639 µM (≈ 0.0999 µg/mL); in assay [22], 6.25 µM (≈ 9.78 µg/mL); in assay [23], 1.6 µM (≈ 2.5 µg/mL). The compound also registered an MIC in assay [24] of 0.0639 µM (≈ 0.0999 µg/mL).
As for `CC(C)C[C@H](NC(=O)[C@H](Cc1cnc[nH]1)NC(=O)[C@H](CCCN=C(N)N)NC(=O)[C@H](CC(C)C)NC(=O)[C@H](CC(C)C)NC(=O)[C@H](Cc1cnc[nH]1)NC(=O)[C@H](CCCN=C(N)N)NC(=O)[C@H](CC(C)C)NC(=O)[C@H](CC(C)C)NC(=O)[C@H](Cc1cnc[nH]1)NC(=O)[C@H](CCCN=C(N)N)NC(=O)[C@H](CC(C)C)NC(=O)[C@H](C)NC(=O)[C@H](CC(=O)O)NC(=O)[C@@H](N)CC(=O)O)C(=O)O` [DDALRHLLRHLLRHL], the MIC in [25] is at least 100 µM; in assay [2], 100 µM (≈ 188 µg/mL); in [26], 25 µM and > 12.5 µM; against Escherichia coli D21, at least 100 µM; in assay [27], at least 100 µM; in [28], above 100 µM. The compound further returned an MIC in [29] of 100 µM (≈ 188 µg/mL).
For `CC[C@H](C)[C@@H]1NC(=O)[C@@H]2CCCN2C(=O)[C@H](CC(C)C)NC(=O)[C@@H]2CCCN2C(=O)[C@H]([C@@H](C)CC)NC(=O)[C@H](C)NC(=O)[C@H](Cc2ccc(O)cc2)NC(=O)[C@@H](NC(=O)[C@@H](NC(=O)[C@@H](N)CCCN=C(N)N)C(C)C)CSSC[C@@H](C(N)=O)NC1=O` [RVCYAIPLPIC], the MIC was at least 80.2 µM in assay [30], at least 48.1 µM in assay [31], at least 40.1 µM in [32] and at least 48.1 µM in the assay with Escherichia coli W160-37.
Turning to `CC(C)[C@H](NC(=O)[C@H](CCCCN)NC(=O)[C@H](CCC(=O)O)NC(=O)[C@H](CCCCN)NC(=O)[C@@H](NC(=O)[C@@H](NC(=O)[C@H](CCC(N)=O)NC(=O)[C@@H](NC(=O)[C@@H](NC(=O)[C@@H]1CCCN1C(=O)[C@H](CCCN=C(N)N)NC(=O)[C@@H](NC(=O)[C@@H](NC(=O)[C@@H](N)CCCN=C(N)N)C(C)C)C(C)C)C(C)C)C(C)C)C(C)C)C(C)C)C(=O)N[C@@H](CCCN=C(N)N)C(=O)O` [RVVRPVVQVVKEKVR], the MIC in [33] was at least 35.7 µM; in [26] it was 35.7 µM (≈ 64 µg/mL); in assay [34] it was at least 35.7 µM; in [8], above 35.7 µM; in assay [35], at least 35.7 µM; in assay [36], at least 35.7 µM. Besides, the MIC in assay [37] was at least 35.7 µM; in [29], above 35.7 µM; in [38] it was at least 35.7 µM; in [39] it was at least 35.7 µM.
